Reference: ChEMBL document CHEMBL1144005, “Orally active 1,2,4-trioxepanes: synthesis and antimalarial activity of a series of 7-arylvinyl-1,2,4-trioxepanes against multidrug-resistant Plasmodium yoelii in Swiss mice” (2008)

Columns and labels:
Assay type in all cases: functional
Parameters in all cases: scale not given: the % may be the effect or the level left
Plasmodium yoelii [1] = assay: Antimalarial activity against multidrug-resistant Plasmodium yoelii in Swiss mice (Mus musculus) as reduced parasitaemia after 4 days at 96 mg/kg peroral dose; conditions: route oral
Plasmodium yoelii [2] = assay: Antimalarial activity as reduced parasitemia at day 4 against multidrug-resistant Plasmodium yoelii in Swiss mice (Mus musculus) at 96 mg/kg Intramuscular dose
Plasmodium yoelii [3] = assay: Antimalarial activity against multidrug-resistant Plasmodium yoelii in Swiss mice (Mus musculus) as reduced parasitaemia after peroral 48 mg/kg dose for 4 days; conditions: route oral

Structure (SMILES)	Activity (Plasmodium yoelii [1]) [%]	Activity (Plasmodium yoelii [2]) [%]	Activity (Plasmodium yoelii [3]) [%]
C=C(c1cccc2ccccc12)C1CCOC2(CCCCC2)OO1 (stereo not given)	17.16	22.25	
C=C(c1ccc(Cl)cc1)C1CCOC2(OO1)C1CC3CC(C1)CC2C3 (stereo not given)	58.38	12.18	
C=C(c1ccc(-c2ccccc2)cc1)C1CCOC2(CCC(=O)CC2)OO1 (stereo not given)	98.49	100	
C=C(c1ccccc1)C1CCOC2(CCC(O)CC2)OO1 (stereo not given)	53.59	21.39	
C=C(c1ccc(-c2ccccc2)cc1)C1CCOC(C)(C)OO1 (stereo not given)	98.22	42.13	
C=C(c1ccc(-c2ccccc2)cc1)C1CCOC2(CCCCC2)OO1 (stereo not given)	91.36	24.69	
C=C(c1ccc(-c2ccccc2)cc1)C1CCOC2(CCC(O)CC2)OO1 (stereo not given)	84.13	75.47	
C=C(c1ccccc1)C1CCOC(C)(C)OO1 (stereo not given)	92.38	87.31	
C=C(c1ccc(Cl)cc1)C1CCOC2(CCCCC2)OO1 (stereo not given)	24.69	46.91	
C=C(c1ccc(-c2ccccc2)cc1)C1CCOC2(CCCC2)OO1 (stereo not given)	64.38	42.36	
C=C(c1ccccc1)C1CCOC2(CCCC2)OO1 (stereo not given)	18.21	58.71	
C=C(c1ccccc1)C1CCOC2(CCC(=O)CC2)OO1 (stereo not given)	72.02	36.6	
C=C(c1cccc2ccccc12)C1CCOC2(OO1)C1CC3CC(C1)CC2C3 (stereo not given)	38.27	11.11	
C=C(c1ccccc1)C1CCOC2(CCCCC2)OO1 (stereo not given)	35.8	9.38	
C=C(c1ccc(Cl)cc1)C1CCOC(C)(C)OO1 (stereo not given)	48.77	57.64	
C=C(c1ccc(Cl)cc1)C1CCOC2(CCC(O)CC2)OO1 (stereo not given)	54.59	11.47	
C=C(c1ccc(Cl)cc1)C1CCOC2(CCCC2)OO1 (stereo not given)	27.16	6.17	
C=C(c1cccc2ccccc12)C1CCOC(C)(C)OO1 (stereo not given)	70.37	32.1	
C=C(c1ccc(Cl)cc1)C1CCOC2(CCC(=O)CC2)OO1 (stereo not given)	23.36	100	
C=C(c1ccc(-c2ccccc2)cc1)C1CCOC2(OO1)C1CC3CC(C1)CC2C3 (stereo not given)	44.78	31.98	
C=C(c1ccccc1)C1CCOC2(OO1)C1CC3CC(C1)CC2C3 (stereo not given)	57.36	27.41	
C=C(c1cccc2ccccc12)C1CCOC2(CCCC2)OO1 (stereo not given)	49.75	19.8	
CCO[C@H]1O[C@@H]2O[C@@]3(C)CC[C@H]4[C@H](C)CC[C@@H]([C@H]1C)[C@@]24OO3 [ARTEMOTIL]			100
